The record followed here is paper PMC7321114, “Anion Inhibition Studies of the Beta-Carbonic Anhydrase from Escherichia coli” (Molecules, 2020).

Some results are limits rather than exact numbers.

The target of one assay is T1, CynT2 (Escherichia coli, UniProt P61517).
T1 construct: gene can; full-length synthetic gene, 220 residues, no signal peptide, N-terminal His6 fusion (pET100D-Topo), expressed in E. coli BL21(DE3) codon plus, about 29 kDa subunit, tag removal not mentioned
T1 sequence (P61517 whole entry, the tested form may be a part): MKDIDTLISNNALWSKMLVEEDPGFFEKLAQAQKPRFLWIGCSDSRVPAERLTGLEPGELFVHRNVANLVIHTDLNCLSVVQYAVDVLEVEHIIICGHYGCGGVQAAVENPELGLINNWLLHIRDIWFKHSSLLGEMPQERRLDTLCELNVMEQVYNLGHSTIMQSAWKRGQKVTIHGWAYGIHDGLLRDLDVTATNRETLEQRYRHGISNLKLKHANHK
Nature of the assay: stopped-flow CO2 hydration assay. The settings on record: CO2 substrate 1.7-17 mM, pH 8.3, 20 mM Tris, 20 mM NaClO4, 15 min preincubation; read-out: KI (mM) ^1 / CynT2. Format: biochemical.
As to `OB1OB2OB(O)OB(O1)O2` [B4O7^2−], the Ki turned out to be 0.25 mM.
Regarding `F[P-](F)(F)(F)(F)F` [PF6^−], the Ki was above 10 mM.

Staying with this assay, now noted: read-out: KI (mM) ^1 / CynT2.
As to `Br` [Br^−], the Ki worked out at 3.8 mM.
For `O=S(=O)(O)C(F)(F)F` [CF3SO3^−], the Ki is above 10 mM.
Take `N#CO` [CNO^−]: the Ki is 0.58 mM.
With `S=C(S)S` [CS3^2−], the Ki worked out at 3.1 mM.
Still for that read-out and setting: to `[O-][Cl+3]([O-])([O-])O` [ClO4^−] belongs above 100 mM.
Consider `Cl` [Cl^−], for which the Ki is 6.7 mM.
Turning to `CCN(CC)C(=S)S` [EtNCS2^−], the Ki came out at 0.084 mM.
On the same count and under the same terms, to `O=S(=O)(O)F` [FSO3^−] belongs 0.83 mM; to `F` [F^−], 9.4 mM.
For `O=S(O)O` [HSO3^−], the Ki was found to be 3.7 mM.
Still for that read-out and setting: to `S` [HS^−] belongs 2.7 mM.
Turning to `I` [I^−], the Ki was above 10 mM.
Consider `NS(N)(=O)=O` [NH2SO2NH2], for which the Ki is 0.011 mM.
Consider `NS(=O)(=O)O` [NH2SO3H], for which the Ki was determined as 0.0025 mM.
For the molecule `O=S(=O)(O)NS(=O)(=O)O` [NH(SO3)2^2−], the Ki came to 1.5 mM.
On the same count and under the same terms, to `O=NO` [NO2^−] belongs 4.9 mM; to `O=[N+]([O-])O` [NO3^−], 2.4 mM.
Turning to `O=P(O)(O)OP(=O)(O)O` [P2O7^2−], the Ki is above 10 mM.
On the same count and under the same terms, to `OB(O)c1ccccc1` [PhB(OH)2] belongs 0.0028 mM; to `[O]=[Re](=[O])(=[O])[OH]` [ReO4^−], above 10 mM.
With `[O]=[Ru](=[O])(=[O])[OH]` [RuO4^−], the Ki was determined as 9.5 mM.
Consider `O=S(=O)(O)OOS(=O)(=O)O` [S2O8^2−], for which the Ki is 6.4 mM.
On to `N#CS` [SCN^−], for which the Ki came out at 5.7 mM.
Same read-out and setting: to `O=S(=O)(O)O` [SO4^2−] belongs 1.7 mM.
With `N#C[SeH]` [SeCN^−], the Ki was found to be 3.1 mM.
On to `O=[Se](=O)(O)O` [SeO4^2−], for which the Ki came to 3.1 mM.
As for `O=[Te](=O)(O)O` [TeO4^2−], the Ki amounted to 0.51 mM.
On to `[O]=[V]([OH])([OH])[O][V](=[O])([OH])[OH]` [V2O7^2−], for which the Ki was above 10 mM.
